The record followed here is patent US7109220B2, “Amino substituted pyridinyl methanone compounds useful in treating kinase disorders” (Janssen Pharmaceutica N.V., priority 2003, dated 2006).

In general, IC50 refers to the concentration that gives 50% inhibition. Broadly, the melting point is the temperature of the solid-liquid transition.

Data set [1] addresses T1, VEGF-R2 kinase (Rattus norvegicus, UniProt O08775).
T1 construct: polyhistidine (N)
The data set can be described thus: VEGF-R2 Kinase Screening Assay. The data set is classed as biochemical. The following applies: soluble rat VEGF-R2 kinase, 10 μM ATP; read-out: VEGF-R IC50. How it is done:
(§1) A kinase reaction mixture was prepared containing 50 mM Tris-HCl pH=8, 10 mM MgCl2, 0.1 mM Na3PO4, 1 mM DTT, 10 μM ATP, 0.025 uM biotinylated peptide substrate and 0.8 μCuries per well^33P-γ-ATP [2000–3000 Ci/mmol]. 70 μL of the kinase reaction mixture was dispensed into the well of a streptavidin coated FlashPlate™ (Cat. #SMP103, NEN, Boston, Mass.). 1 μL of test compound stock in 100% DMSO was added to the wells resulting in a final concentration of 1% DMSO in the mixture with a 100 μL final reaction volume. Soluble rat VEGF-R2 kinase^3 was diluted in 50 mM Tris-HCl pH=8.0, 0.1% BSA at a concentration of 5 ng per microliter and 30 μL (150 ng enzyme per test well) was added to each well to initiate the reaction. The reaction was incubated for one hour at 30° C. At the end of the 1-hour incubation, the reaction was terminated by aspirating the reaction mixture from the plate and washing the wells twice with PBS containing 100 mM EDTA. The PLC1 biotinylated peptide substrate became immobilized on the Flashplate™ and the incoporation of ^33P-γ-ATP was measured by reading the plate on a scintillation counter. Inhibition of the enzymatic activity of the VEGF-R was measured by observing a reduced amount of ^33P-γ-ATP incorporated into the immobilized peptide. ^3VEGF-R2 kinase (Vascular Endothelial Growth Factor Receptor-2): a fusion protein containing a polyhistidine tag at the N-terminus followed by amino acids 786–1343 of the rat VEGF-R2 kinase domain GenBank Accession #U93306); Peptide Substrate (Biotin)KHKKLAEGSAYEEV-Amide
(§2) IC50 values listed as >10 or >100 indicate no observed 50% inhibition at the highest dose tested, nor was an inhibition maximum observed.

Data set [2] addresses T2, HER2 kinase (Homo sapiens, UniProt P04626).
T2 construct: polyhistidine (N); 24 additional non-native amino acids (between the His tag and HER2) (N)
Nature of the data set: HER-2 Kinase Screening Assay. It is filed as biochemical. The note with it: HER2 cytoplasmic domain construct, 10 μM ATP. How it is done:
as §1
Using the procedure and materials of Example 3, replacing VEGF-R2 kinase with HER2^4, the IC50 data for HER2 kinase is shown in Table 4. ^4HER2 (Human Epidermal Growth Factor Receptor-2): a construct containing a polyhistidine tag at the N-terminus followed by 24 additional non-native amino acids beginning at amino acid 676 (Accession number M11730) followed by the remainder of the HER2 cytoplasmic domain; Peptide Substrate (Biotin)KHKKLAEGSAYEEV-Amide.
IC50 values listed as >100 indicate no observed 50% inhibition at the highest dose tested, nor was an inhibition maximum observed.

Data set [3] deals with T3, CDK1:Cyclin-B (Homo sapiens, UniProt P06493).
T3 construct: purchased New England Biolabs, Beverly, Mass; (CDK1); BIOMOL, Plymouth Meeting, Pa; (Cyclin-B) #6020 (CDK1); #SE-195 (Cyclin-B); host or cells: insect cells
T3 sequence (P06493 whole entry): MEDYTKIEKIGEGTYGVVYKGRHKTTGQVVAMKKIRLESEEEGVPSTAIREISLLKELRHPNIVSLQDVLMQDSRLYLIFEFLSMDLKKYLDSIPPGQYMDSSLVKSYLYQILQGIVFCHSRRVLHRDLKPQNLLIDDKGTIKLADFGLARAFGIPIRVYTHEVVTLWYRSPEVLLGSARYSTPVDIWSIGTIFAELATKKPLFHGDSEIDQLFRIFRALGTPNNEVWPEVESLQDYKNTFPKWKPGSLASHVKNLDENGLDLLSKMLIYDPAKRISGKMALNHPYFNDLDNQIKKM
T3 sequence (P14635 whole entry partner): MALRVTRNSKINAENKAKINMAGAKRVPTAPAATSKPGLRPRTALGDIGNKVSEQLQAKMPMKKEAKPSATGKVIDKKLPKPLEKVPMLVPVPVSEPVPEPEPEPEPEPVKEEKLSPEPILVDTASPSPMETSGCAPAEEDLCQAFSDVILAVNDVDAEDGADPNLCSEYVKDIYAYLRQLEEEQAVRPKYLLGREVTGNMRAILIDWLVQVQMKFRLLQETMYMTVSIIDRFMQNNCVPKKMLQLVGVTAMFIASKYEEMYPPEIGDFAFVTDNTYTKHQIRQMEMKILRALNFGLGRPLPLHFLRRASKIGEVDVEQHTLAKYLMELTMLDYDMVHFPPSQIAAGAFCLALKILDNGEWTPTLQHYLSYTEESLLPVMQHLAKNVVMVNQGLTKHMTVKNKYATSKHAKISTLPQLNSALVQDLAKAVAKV
Nature of the data set: CDK1 Screening Assay. The data set is classed as biochemical. The note with it: 10 μM ATP, histone-H1 peptide substrate, 1 hour at 30° C. The method, then:
(§3) A kinase reaction mixture was prepared containing 50 mM Tris-HCl pH=8, 10 mM MgCl2, 0.1 mM Na3PO4, 1 mM DTT, 10 μM ATP, 0.025 μM biotinylated histone-H1 peptide substrate and 0.2 μCuries per well^33P-γ-ATP [2000–3000 Ci/mmol]. 70 μL of the kinase reaction mixture was dispensed into the well of a streptavidin coated FlashPlate™ (Cat. #SMP103, NEN, Boston, Mass.). Then 1 μL of test compound stock in 100% DMSO was added to the wells resulting in a final concentration of 1% DMSO in the reaction with a 100 μL final reaction volume. CDK1:Cyclin-B protein^1 was diluted in 50 mM Tris-HCl pH=8.0, 0.1% BSA at a concentration of 1 ng per microliter. 30 μL (30 ng enzyme per test well) was added to each well to initiate the reaction, The reaction was incubated for one hour at 30° C. At the end of the 1-hour incubation, the reaction was terminated by aspirating the reaction mixture from the plate and washing the wells twice with PBS containing 100 mM EDTA. The histone-H1 biotinylated peptide substrate became immobilized on the Flashplate™ and the incorporation of ^33P-γ-ATP was measured by reading the plate on a scintillation counter. Inhibition of the enzymatic activity of CDK1 was measured by observing a reduced amount of ^33P-γ-ATP incorporated into the immobilized peptide. ^1CDK1 (cyclin dependent kinase 1) was isolated from insect cells expressing both the human CDK1 catalytic subunit and its positive regulatory subunit Cyclin B (CDK1: New England Biolabs, Beverly, Mass., Cat. #6020; Cyclin-B: BIOMOL, Plymouth Meeting, Pa., Cat. #SE-195); Peptide Substrate (Biotin)KTPKKAKKPKTPKKAKKL-Amide.
as §2

Data set [4] concerns the target T4, CDK2:Cyclin-E (Homo sapiens, UniProt P24941).
T4 construct: purchased Upstate Biotechnology, Lake Placid, N.Y
Nature of the data set: CDK2 Screening Assay. It is filed as biochemical. The following applies: 10 μM ATP, histone-H1 peptide substrate. How it is done: as §3
Using the procedure and materials of Example 1, replacing CDK1:Cyclin-B protein with CDK2:Cyclin-E protein^2, the IC50 data for CDK2 is shown in Table 2. ^2CDK2 (cyclin dependent kinase 2) in complex with cyclin E is commercially available (Upstate Biotechnology, Lake Placid, N.Y.); Peptide Substrate (Biotin)KTPKKAKKPKTPKKAKKL-Amide
IC50 values listed as ˜100 indicate no observed 50% inhibition at the highest dose tested, nor was an inhibition maximum observed.

In data set [5] the test system is A375 malignant melanoma. Nature of the data set: Inhibition of Cell Proliferation (14C-thymidine incorporation), A375. The following applies: Homo sapiens, A-375. It is filed as cell-based. The method, then: (§4) The ability of a test compound to inhibit the proliferation of cell growth was determined by measuring incorporation of ^14C-labelled thymidine into newly synthesized DNA within the cells. This method was used on cell lines derived from carcinomas originating from several tissues such as HeLa cervical adenocarcinoma (American Type Culture Collection (ATCC), Virginia, Cat. #CCL-2), HCT-116 colon carcinoma (CCL-247), MDA-MB-231 (Xenogen Corp.), PC-3 prostate adenocarcinoma (ATCC CRL-1435) and A375 malignant melanoma (ATCC CRL-1619).
(§5) Using this method, the effect of a compound on cell growth for cells with many different phenotypes can be determined. Cells were trypsinized and counted and 3000–8000 cells were added to each well of a 96-well CytoStar tissue culture treated scintillating microplate (Amersham #RPNQ0160) in complete medium in a volume of 100 μl. Cells were incubated for 24 hours in complete medium at 37° C. in an atmosphere containing 5% CO2. 1 μL of test compound in 100% DMSO was then added to the wells of the plate. DMSO only was added to control wells. Cells were incubated for 24 more hours in complete medium at 37° C. in an atmosphere containing 5% CO2. […] The degree of methyl ^14C-thymidine incorporation was quantified on a Packard Top Count.
Background: Uptake of a labelled nucleoside into DNA is a usual measure of proliferation.

Data set [6] relates to HCT-116 colon carcinoma. The data set can be described thus: Inhibition of Cell Proliferation (14C-thymidine incorporation), HCT-116. It is filed as cell-based. The following applies: Homo sapiens. The method, then:
as §4, §5

Data set [7] concerns HeLa cervical adenocarcinoma. The data set can be described thus: Inhibition of Cell Proliferation (14C-thymidine incorporation), HeLa. It is filed as cell-based. The following applies: Homo sapiens. How it is done:
as §4, §5

T2 sequence (P04626 676-1255 limits assumed): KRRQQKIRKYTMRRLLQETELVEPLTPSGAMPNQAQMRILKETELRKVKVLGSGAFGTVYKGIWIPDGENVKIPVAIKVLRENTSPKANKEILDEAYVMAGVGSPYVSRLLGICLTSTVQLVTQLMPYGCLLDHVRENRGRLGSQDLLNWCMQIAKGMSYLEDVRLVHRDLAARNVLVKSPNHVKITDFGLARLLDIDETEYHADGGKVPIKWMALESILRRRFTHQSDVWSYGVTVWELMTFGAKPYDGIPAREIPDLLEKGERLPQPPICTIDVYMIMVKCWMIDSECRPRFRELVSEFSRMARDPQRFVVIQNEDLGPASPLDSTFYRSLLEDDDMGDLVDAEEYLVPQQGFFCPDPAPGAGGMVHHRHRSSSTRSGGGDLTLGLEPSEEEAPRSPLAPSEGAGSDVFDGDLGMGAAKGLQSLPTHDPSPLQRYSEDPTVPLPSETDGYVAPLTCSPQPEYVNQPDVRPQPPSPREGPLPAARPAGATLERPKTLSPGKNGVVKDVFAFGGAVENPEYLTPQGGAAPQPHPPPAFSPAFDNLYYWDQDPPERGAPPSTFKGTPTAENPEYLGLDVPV
T1 sequence (O08775 786-1343): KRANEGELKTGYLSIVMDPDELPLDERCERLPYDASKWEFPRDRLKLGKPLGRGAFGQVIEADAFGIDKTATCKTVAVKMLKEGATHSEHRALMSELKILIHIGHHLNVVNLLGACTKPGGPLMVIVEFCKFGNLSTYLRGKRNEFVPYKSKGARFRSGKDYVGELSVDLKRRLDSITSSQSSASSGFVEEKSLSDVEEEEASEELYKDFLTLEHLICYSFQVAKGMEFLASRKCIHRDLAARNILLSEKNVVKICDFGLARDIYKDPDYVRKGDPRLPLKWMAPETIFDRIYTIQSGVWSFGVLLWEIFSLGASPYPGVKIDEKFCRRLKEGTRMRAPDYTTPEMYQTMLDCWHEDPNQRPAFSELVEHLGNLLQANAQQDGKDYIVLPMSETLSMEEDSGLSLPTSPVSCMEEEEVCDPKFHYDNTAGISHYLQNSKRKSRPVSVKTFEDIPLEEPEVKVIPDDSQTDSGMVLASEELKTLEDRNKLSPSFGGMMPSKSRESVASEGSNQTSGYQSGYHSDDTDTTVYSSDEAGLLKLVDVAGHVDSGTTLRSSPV

`Nc1ccc(C(=O)c2c(F)cccc2F)c(N)n1` [Cpd 1, (2,6-diamino-3-pyridinyl)(2,6-difluorophenyl)methanone] showed a melting point of 179 to 181 °C. In data set [1], the half-maximal inhibitory concentration (IC50) is > 10 µM.

With `N#Cc1ccc(Nc2ccc(C(=O)c3c(F)cccc3F)c(N)n2)cc1` [Cpd 8, 4-[[6-amino-5-(2,6-difluorobenzoyl)-2-pyridinyl]amino]benzonitrile], the melting point is 208 to 210 °C (dec.). Moreover, the IC50 in data set [1] is > 10 µM.

Take `Nc1nc(Nc2ccc([N+](=O)[O-])cc2)ccc1C(=O)c1c(F)cccc1F` [Cpd 9, [2-amino-6-[(4-nitrophenyl)amino]-3-pyridinyl](2,6-difluorophenyl)methanone]: the melting point fell in the range of 220 to 225 °C. Besides, the IC50 in data set [1] is > 10 µM.

Turning to `CCCCOc1cc(N)nc(N)c1C(=O)c1c(F)cccc1F` [Cpd 31, (2,6-Diamino-4-butoxy-pyridin-3-yl)-(2,6-difluoro-phenyl)-methanone], the IC50 in data set [1] is 40.2 µM; in data set [2] it was 1.14 µM; in data set [3] it was 1.16 µM; in data set [4] it was 1.32 µM.

As to `CCCCOc1cc(NC(=O)Nc2ccccc2)nc(N)c1C(=O)c1c(F)cccc1F` [Cpd 32, 1-[6-Amino-4-butoxy-5-(2,6-difluoro-benzoyl)-pyridin-2-yl]-3-phenyl-urea], the IC50 in data set [1] was > 100 µM; in data set [2], > 100 µM; in data set [3], > 100 µM; in data set [4], ≥ 100 µM.

Turning to `CCCCOc1cc(NC(=S)Nc2ccccc2)nc(N)c1C(=O)c1c(F)cccc1F` [Cpd 33, 1-[6-Amino-4-butoxy-5-(2,6-difluoro-benzoyl)-pyridin-2-yl]-3-phenyl-thiourea], the IC50 in data set [1] is > 100 µM; in data set [2] it was > 100 µM; in data set [3], > 100 µM; in data set [4] it was ≥ 100 µM.

As for `CCCCOc1cc(NC(=O)c2ccccc2)nc(N)c1C(=O)c1c(F)cccc1F` [Cpd 34, N-[6-Amino-4-butoxy-5-(2,6-difluoro-benzoyl)-pyridin-2-yl]-benzamide], the IC50 in data set [1] was > 100 µM; in data set [2], > 100 µM; in data set [3], > 100 µM; in data set [4], ≥ 100 µM.

On to `CCCCOc1cc(Nc2ccc(S(=O)(=O)N(C)C)cc2)nc(N)c1C(=O)c1c(F)cccc1F` [Cpd 35, 4-[6-Amino-4-butoxy-5-(2,6-difluoro-benzoyl)-pyridin-2-ylamino]-N,N-dimethyl-benzenesulfonamide], for which the IC50 was > 100 µM in data set [1], > 100 µM in data set [2], ~1 µM in data set [3] and 0.62 µM in data set [4].

As to `CCCCOc1cc(Nc2ccc(S(N)(=O)=O)cc2)nc(N)c1C(=O)c1c(F)cccc1F` [Cpd 36, 4-[6-Amino-4-butoxy-5-(2,6-difluoro-benzoyl)-pyridin-2-ylamino]-benzenesulfonamide], the IC50 in data set [1] was > 100 µM; in data set [2], 1 µM; in data set [3], 0.28 µM; in data set [5], 2.96 µM; in data set [4] it was 0.07 µM; in data set [6], 6.78 µM. Further, 10.7 µM corresponded to half-maximal inhibition in data set [7] (IC50).
